Measured values taken from patent publication US10030006B2, “Coumarin based Hsp90 inhibitors with urea and ether substituents” (University of Kansas, priority 2013, dated 2018).

Tests used:
Assay type in all cases: cell-based
HMLE = assay: Anti-proliferation assay, HMLE (normal); conditions: HMLE, Table 6, substituted phenyl ureas
Protocol: (§1) Cells were maintained in a 1:1 mixture of Advanced DMEM/F12 (Gibco) supplemented with non-essential amino acids, L-glutamine (2 mM), streptomycin (500 μg/mL), penicillin (100 units/mL), and 10% FBS. Cells were grown to confluence in a humidified atmosphere (37° C., 5% CO2), seeded (2000/well, 100 μL) in 96-well plates, and allowed to attach overnight. Compound at varying concentrations in DMSO (1% DMSO final concentration) was added, and cells were returned to the incubator for 72 h. At 72 h, the number of viable cells was determined using an MTS/PMS cell proliferation kit (Promega) per the manufacturer's instructions. Cells incubated in 1% DMSO were used at 100% proliferation, and values were adjusted accordingly. IC50 values were calculated from separate experiments performed in triplicate using GraphPad Prism.

PC-3 = assay: Anti-proliferation assay, PC-3; conditions: Homo sapiens, PC-3; Table 6, substituted phenyl ureas; Prostate Cancer
Protocol: as §1

DRO81-1 = assay: Anti-proliferation assay, DRO81-1; conditions: Table 6, substituted phenyl ureas; Thyroid
Protocol: as §1

HCT-116 = assay: Anti-proliferation assay, HCT-116; conditions: Homo sapiens, HCT-116; Table 6, substituted phenyl ureas
Protocol: as §1

[1] = tested on: SKBr3 (estrogen receptor negative, Her2 over-expressing breast cancer cells); assay: Anti-proliferation assay (MTS/PMS, 72 h), SKBr3; conditions: Homo sapiens, SK-BR-3; Table 6, substituted phenyl ureas; Breast Cancer; read-out: IC50 SKBr3
Protocol: as §1
(§2) The anti-proliferative activity of these compounds is evaluated against two breast cancer cell lines, SKBr3 (estrogen receptor negative, Her2 over-expressing breast cancer cells) and MCF-7 (estrogen receptor positive breast cancer cells).

JMAR = assay: Anti-proliferation assay, JMAR; conditions: JMAR; Table 6, substituted phenyl ureas; HSNCC
Protocol: as §1

MDA1986 = assay: Anti-proliferation assay, MDA1986; conditions: MDA1986; Table 6, substituted phenyl ureas; HSNCC
Protocol: as §1

A-549 = assay: Anti-proliferation assay, A-549; conditions: Homo sapiens, A549; Table 6, substituted phenyl ureas
Protocol: as §1

MRC5 = assay: Anti-proliferation assay, MRC5 (normal); conditions: Homo sapiens, MRC5, Table 6, substituted phenyl ureas
Protocol: as §1

MDAMB231 = assay: Anti-proliferation assay, MDAMB231; conditions: Homo sapiens, MDA-MB-231; Table 6, substituted phenyl ureas; Tri-Neg
Protocol: as §1

[2] = tested on: MCF-7 (estrogen receptor positive breast cancer cells); assay: Anti-proliferation assay (MTS/PMS, 72 h), MCF-7; conditions: Homo sapiens, MCF7; Table 6, substituted phenyl ureas; Breast Cancer; read-out: IC50 MCF-3
Protocol: as §1, §2

| SMILES | IC50 (HMLE) [µM] | IC50 (PC-3) [µM] | IC50 (DRO81-1) [µM] | IC50 (HCT-116) [µM] | IC50 [1] [µM] | IC50 (JMAR) [µM] | IC50 (MDA1986) [µM] | IC50 (A-549) [µM] | IC50 (MRC5) [µM] | IC50 (MDAMB231) [µM] | IC50 [2] [µM] |
| --- | --- | --- | --- | --- | --- | --- | --- | --- | --- | --- | --- |
| Cc1ccc(NC(=O)Nc2cc3ccc(OC4CCN(C)CC4)c(C)c3oc2=O)c(C)c1 [2,4-dimethyl, 1-(2,4-dimethylphenyl)-3-(8-methyl-7-((1-methylpiperidin-4-yl)oxy)-2-oxo-2H-chromen-3-yl)urea] | > 25 | 0.27 | 2.3 | 0.77 | 3.79 | 1.1 | 1.9 | 0.43 | 3.6 | 2.6 | 1.11 |
| Cc1c(OC2CCN(C)CC2)ccc2cc(NC(=O)Nc3ccc(Cl)c(Cl)c3)c(=O)oc12 [3,4-dichloro, 1-(3,4-dichlorophenyl)-3-(8-methyl-7-((1-methylpiperidin-4-yl)oxy)-2-oxo-2H-chromen-3-yl)urea] | 1.5 | 2.04 | 13.2 | 17 | 0.64 | 6.7 | 2.6 | 1.82 | 2.1 | 2.9 | 1.78 |
| Cc1ccc(NC(=O)Nc2cc3ccc(OC4CCN(C)CC4)c(C)c3oc2=O)cc1C [3,4-dimethyl, 1-(3,4-dimethylphenyl)-3-(8-methyl-7-((1-methylpiperidin-4-yl)oxy)-2-oxo-2H-chromen-3-yl)urea] | 0.9 | 1.33 | 8.1 | 0.066 | 0.31 | 1.7 | 1.3 | 0.063 | 2.7 | 1.9 | 0.33 |
| Cc1c(OC2CCN(C)CC2)ccc2cc(NC(=O)Nc3cc(Cl)cc(Cl)c3)c(=O)oc12 [3,5-dichloro, 1-(3,5-dichlorophenyl)-3-(8-methyl-7-((1-methylpiperidin-4-yl)oxy)-2-oxo-2H-chromen-3-yl)urea] | > 25 | 0.16 | 0.77 | 1.21 | 0.51 | 6.2 | 7.5 | 0.2 | > 25 | 3.6 | 0.49 |
| Cc1cc(C)cc(NC(=O)Nc2cc3ccc(OC4CCN(C)CC4)c(C)c3oc2=O)c1 [3,5-dimethyl, 1-(3,5-dimethylphenyl)-3-(8-methyl-7-((1-methylpiperidin-4-yl)oxy)-2-oxo-2H-chromen-3-yl)urea] | 13.8 | 1.35 | 8.4 | 0.17 | 0.3 | 3.4 | 0.09 | 0.052 | 5.9 | 0.65 | 0.34 |
| COc1ccc(C(C)(C)C)cc1NC(=O)Nc1cc2ccc(OC3CCN(C)CC3)c(C)c2oc1=O [Compound 2-OMe-5-t-Bu, 1-(5-(tert-butyl)-2-methoxyphenyl)-3-(8-methyl-7-((1-methylpiperidin-4-yl)oxy)-2-oxo-2H-chromen-3-yl)urea] | 6.1 | 3.82 | 6.1 | 1.24 | 3.87 | 3.8 | 0.09 | 0.84 | 2.65 | 0.91 | 1.53 |
| Cc1c(OC2CCN(C)CC2)ccc2cc(NC(=O)Nc3cccc(Cl)c3)c(=O)oc12 [m-Cl, 1-(3-chlorophenyl)-3-(8-methyl-7-((1-methylpiperidin-4-yl)oxy)-2-oxo-2H-chromen-3-yl)urea] | 22 | 1.82 | 3.8 | 0.22 | 0.3 | 1.7 | 1.7 | 0.063 | 3.1 | 0.57 | 0.52 |
